Measured values: US11209437B2, “Fluorescent probe and preparation method and use thereof” (Fluorescence Diagnosis (shanghai) Biotech Company Ltd., priority 2016, dated 2021)

Key:
[1] = Fluorescence of free probe prior to binding to a protein tag; assay type: physicochemical
CLIP protein tags = experiment: Fluorescence activation of probe after incubation with corresponding protein tag (CLIP); assay type: biochemical; details: probe 5 μM, protein tag 10 μM, 37° C., 1 hr
Method: Probes were mixed with corresponding protein tags to obtain mixed samples, in which the final probe concentration was 5 μM, and the final protein tag concentration was 10 μM. The mixed samples were incubated 37° C. for 1 hr, fluorescence spectrophotometer was used to detect the change in fluorescence intensity, and the results are shown in Table 1.
From the quantum yield of probe bound to protein tag, after reacting with the protein tags, the probes of the Examples could be detected to have significant signal enhancement in corresponding excitation transmission channels, the fluorescence activation multiple reached several hundreds to a thousand or more, and the brightness was high, which illustrates that after the probes of the Examples are bound to the protein tags, fluorescence of the probes can be activated, and the probes have good fluorescent molecular switching properties. In contrast, though the fluorescence of the reference probes could also be activated, the quantum yield of activated fluorescence was very low, and the brightness was very poor. In particular, in view of comparison results between probe 98 and reference probe 99, probe 101 and reference probe 102, probe 103 and reference probe 104, probe 105 and reference probe 106, probe 107 and reference probe 108, probe 109 and reference probe 110, probe 111 and reference probe 112, probe 114 and reference probe 115, probe 117 and reference probe 118, probe 120 and reference probe 121 in Table 1, for the same fluorescent dye, when the ligand is connected to the electron donor part of the fluorescent dye, the fluorescence activation brightness of the probe is much higher than the reference probe in which ligand is connected to the electron acceptor part of the fluorescent dye.

[2] = Viscosity responsiveness: fluorescence emission spectra of probes in glycerol and methanol; assay type: physicochemical; details: for Emission wavelength: excited at maximum excitation wavelength of each probe; for Fluorescence ratio in glycerol to methanol: probe 1×10^−5 M
In short: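 Each probe, from a 1×10^−2 M DMSO stock, was diluted to a final 1×10^−5 M in glycerol and in methanol. Fluorescence emission spectra were then recorded under identical conditions at each probe's maximum excitation wavelength.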

SNAP protein tags = target: T1, SNAP protein tags (Homo sapiens, UniProt P16455, A127T/A154D/C150Q/C62A/E30R/G131K/G132T/G153L/K125A/K32I/L33F/M134L/N157G/Q115S/Q116H/R128A/R135S/S151G/S152D/S159E); experiment: Fluorescence activation of probe after incubation with corresponding protein tag (SNAP); assay type: biochemical; details: probe 5 μM, protein tag 10 μM, 37° C., 1 hr
T1 sequence (P16455 1-182 E30R/K32I/L33F/C62A/Q115S/Q116H/K125A/A127T/R128A/G131K/G132T/M134L/R135S/C150Q/S151G/S152D/G153L/A154D/N157G/S159E): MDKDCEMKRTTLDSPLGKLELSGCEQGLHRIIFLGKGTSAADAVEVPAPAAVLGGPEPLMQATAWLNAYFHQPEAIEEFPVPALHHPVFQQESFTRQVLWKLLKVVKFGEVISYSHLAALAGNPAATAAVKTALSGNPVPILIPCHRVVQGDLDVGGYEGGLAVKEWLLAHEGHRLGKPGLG
In short: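 Probe (5 μM final) mixed with CLIP or SNAP protein tag (10 μM final) and incubated 1 hr at 37° C. Fluorescence intensity change measured by fluorescence spectrophotometer, with quantum yield of tag-bound probe determined.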

Compound | Quantum yield of free probe [1] | Emission wavelength [2] | Fluorescence ratio in glycerol to methanol [2] | Fluorescence activation multiple (SNAP protein tags) | Quantum yield of probe bound to protein tag (SNAP protein tags) | Fluorescence activation multiple (CLIP protein tags) | Quantum yield of probe bound to protein tag (CLIP protein tags)
CN(CCOC(=O)NCc1ccc(COc2nccc(N)n2)cc1)c1cc2sc(/C=C(\C#N)C(=O)OC(C)(C)C)cc2s1 [probe 27] | <0.001 | 555 nm | 1134 |  |  | 665 | 0.39
CN(CCOC(=O)NCc1ccc(COc2nccc(N)n2)cc1)c1ccc2cc(/C=C(\C#N)C(=O)OC(C)(C)C)sc2c1 [probe 34] | <0.001 | 570 nm | 1774 |  |  | 857 | 0.48
CN(CCOC(=O)NCc1ccc(COc2nccc(N)n2)cc1)c1ccc2nc(/C=C(\C#N)C(=O)OC(C)(C)C)sc2c1 [probe 53] | <0.001 | 625 nm | 401 |  |  | 579 | 0.18
COCCNC(=O)/C(C#N)=C/c1cc2cc3sc(N(C)CCOC(=O)NCc4ccc(COc5nccc(N)n5)cc4)cc3cc2s1 [probe 72] | 0.001 | 640 nm | 268 |  |  | 486 | 0.47
CN(CCOC(=O)NCc1ccc(COc2nccc(N)n2)cc1)c1ccc(-c2ccc(/C=C(\C#N)C(=O)OC(C)(C)C)s2)s1 [probe 80] | 0.0011 | 655 nm | 218 |  |  | 349 | 0.38
CC(C)(C)OC(=O)/C(C#N)=C/c1ccc2c(c1)SCCN2CCOC(=O)NCc1ccc(COc2nccc(N)n2)cc1 [probe 84] | <0.001 | 515 nm | 121 |  |  | 431 | 0.16
CC1=CC(C)(C)N(CCOC(=O)NCc2ccc(COc3nccc(N)n3)cc2)c2ccc(/C=C(\C#N)C(=O)OC(C)(C)C)cc21 [probe 90] | <0.001 | 575 nm | 109 |  |  | 541 | 0.28
CN(CCOC(=O)NCc1ccc(COc2nccc(N)n2)cc1)c1cc2c(s1)-c1sc(/C=C(/C#N)C(=O)OC(C)(C)C)cc1C2(C)C [probe 95] | <0.001 | 645 nm | 431 |  |  | 553 | 0.42
CN(CCOC(=O)NCc1ccc(COc2nc(N)nc3[nH]cnc23)cc1)c1ccc2nc(/C=C(\C#N)C(=O)O)sc2c1 [probe 114] | <0.001 | 625 nm | 230 | 328 | 0.27 |  | 
CN(CCOC(=O)NCc1ccc(COc2nc(N)nc3[nH]cnc23)cc1)c1ccc(-c2ccc(/C=C(\C#N)C(=O)O)s2)cc1 [probe 117] | <0.001 | 620 nm | 321 | 562 | 0.39 |  | 
CN(CCOC(=O)NCc1ccc(COc2nc(N)nc3[nH]cnc23)cc1)c1ccc(-c2ccc(/C=C(\C#N)C(=O)O)s2)s1 [probe 120] | <0.001 | 656 nm | 421 | 469 | 0.42 |  | 

Continued, in another order:

Quantum yield of free probe [1] | Emission wavelength [2] | Fluorescence ratio in glycerol to methanol [2] | Fluorescence activation multiple (SNAP protein tags) | Quantum yield of probe bound to protein tag (SNAP protein tags) | Compound | Fluorescence activation multiple (CLIP protein tags) | Quantum yield of probe bound to protein tag (CLIP protein tags)
<0.001 | 480 nm | 1455 |  |  | CN(CCOC(=O)NCc1ccc(COc2nccc(N)n2)cc1)c1ccc(/C=C(\C#N)C(=O)OC(C)(C)C)cc1 [probe 7] | 1502 | 0.23
0.0018 | 510 nm | 320 |  |  | CN(CCOC(=O)NCc1ccc(COc2nccc(N)n2)cc1)c1ccc(/C=C(\C#N)c2nc3ccccc3o2)cc1 [probe 8] | 68 | 0.12
<0.001 | 531 nm | 851 |  |  | CN(CCOC(=O)NCc1ccc(COc2nccc(N)n2)cc1)c1ccc(/C=C(\C#N)c2nc3ccccc3s2)cc1 [probe 9] | 745 | 0.21
<0.001 | 580 nm | 402 |  |  | CN1C(=O)/C(=C/c2ccc(N(C)CCOC(=O)NCc3ccc(COc4nccc(N)n4)cc3)cc2)N=C1/C=C/c1ccccc1 [probe 17] | 498 | 0.15
<0.001 | 535 nm | 341 |  |  | CN(CCOC(=O)NCc1ccc(COc2nccc(N)n2)cc1)c1ccc(C2=C(C#N)C(=C(C#N)C#N)OC2(C)C)cc1 [probe 20] | 398 | 0.32
<0.001 | 590 nm | 1132 |  |  | CN(CCOC(=O)NCc1ccc(COc2nccc(N)n2)cc1)c1cc2sc(/C=C(\C#N)c3nc4ccccc4o3)cc2s1 [probe 28] | 551 | 0.31
<0.001 | 610 nm | 998 |  |  | CN(CCOC(=O)NCc1ccc(COc2nccc(N)n2)cc1)c1cc2sc(/C=C(\C#N)c3nc4ccccc4s3)cc2s1 [probe 29] | 621 | 0.33
<0.001 | 603 nm | 752 |  |  | CN(CCOC(=O)NCc1ccc(COc2nccc(N)n2)cc1)c1ccc2nc(/C=C(\C#N)C(=O)OC(C)(C)C)oc2c1 [probe 45] | 958 | 0.29
<0.001 | 566 nm | 762 |  |  | CN(CCOC(=O)NCc1ccc(COc2nccc(N)n2)cc1)c1ccc(C#C/C=C(\C#N)C(=O)OC(C)(C)C)cc1 [probe 57] | 1026 | 0.31
<0.001 | 620 nm | 217 |  |  | COCCNC(=O)/C(C#N)=C/c1ccc(-c2ccc(N(C)CCOC(=O)NCc3ccc(COc4nccc(N)n4)cc3)cc2)s1 [probe 69] | 491 | 0.27
<0.001 | 672 nm | 235 |  |  | CN(CCOC(=O)NCc1ccc(COc2nccc(N)n2)cc1)c1ccc(-c2ccc(/C=C(\C#N)c3nc4ccccc4o3)s2)s1 [probe 81] | 391 | 0.29
<0.001 | 681 nm | 241 |  |  | CN(CCOC(=O)NCc1ccc(COc2nccc(N)n2)cc1)c1ccc(-c2ccc(/C=C(\C#N)c3nc4ccccc4s3)s2)s1 [probe 82] | 321 | 0.21
0.0013 | 612 nm | 163 |  |  | CC1=CC(C)(C)N(CCOC(=O)NCc2ccc(COc3nccc(N)n3)cc2)c2ccc(/C=C(\C#N)c3nc4ccccc4s3)cc21 [probe 91] | 192 | 0.24
<0.001 | 675 nm | 125 |  |  | CN(CCOC(=O)NCc1ccc(COc2nccc(N)n2)cc1)c1cc2c(s1)-c1sc(/C=C(/C#N)c3nc4ccccc4o3)cc1C2(C)C [probe 96] | 435 | 0.31
